ChEMBL document CHEMBL1201862, “PubChem BioAssay data set” (2004)
Activity calls are given as the source filed them.

Columns and labels:
[1] = target: T1, Alkaline phosphatase, tissue-nonspecific isozyme (Homo sapiens, UniProt P05186); assay: potency against alkaline phosphatase TNAP – biochemical, luminescent, dose response, SAR follow-up (AID 1056)
T1 sequence (P05186 whole entry): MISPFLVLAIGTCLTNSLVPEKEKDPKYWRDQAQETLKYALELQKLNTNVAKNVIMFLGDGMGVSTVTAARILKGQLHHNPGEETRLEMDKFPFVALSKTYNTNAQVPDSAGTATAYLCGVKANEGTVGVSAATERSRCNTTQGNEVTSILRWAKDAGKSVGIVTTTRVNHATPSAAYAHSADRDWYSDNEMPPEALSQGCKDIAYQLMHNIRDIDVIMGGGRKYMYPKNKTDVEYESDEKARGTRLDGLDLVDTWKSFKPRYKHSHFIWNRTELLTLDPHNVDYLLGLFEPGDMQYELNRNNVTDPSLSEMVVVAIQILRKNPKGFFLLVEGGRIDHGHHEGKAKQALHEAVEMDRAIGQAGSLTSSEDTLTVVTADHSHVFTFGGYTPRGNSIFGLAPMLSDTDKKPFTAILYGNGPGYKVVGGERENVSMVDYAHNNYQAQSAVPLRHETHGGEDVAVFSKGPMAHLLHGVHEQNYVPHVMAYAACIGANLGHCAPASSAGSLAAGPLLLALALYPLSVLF

[2] = target: Glyceraldehyde-3-phosphate dehydrogenase (Homo sapiens, UniProt P04406)
Chain of Glyceraldehyde-3-phosphate dehydrogenase (P04406 whole entry): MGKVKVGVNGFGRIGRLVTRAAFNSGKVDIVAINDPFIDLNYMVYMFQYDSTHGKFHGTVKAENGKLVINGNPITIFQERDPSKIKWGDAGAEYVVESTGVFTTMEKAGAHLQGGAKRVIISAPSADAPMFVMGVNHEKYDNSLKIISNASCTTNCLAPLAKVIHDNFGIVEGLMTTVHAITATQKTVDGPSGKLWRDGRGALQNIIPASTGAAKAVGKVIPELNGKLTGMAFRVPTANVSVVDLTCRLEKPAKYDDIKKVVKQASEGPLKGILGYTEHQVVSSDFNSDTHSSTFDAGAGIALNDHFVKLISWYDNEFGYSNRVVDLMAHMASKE

[3] = target: Eukaryotic translation initiation factor 4E (Mus musculus, UniProt P63073); assay: blockers of eIF4G binding by eIF4E – biochemical, TR-FRET, dose response (AID 855); assay type: functional;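 note: potency for disrupting eIF4E binding to eIF4GI seen as loss of FRET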
Chain of Eukaryotic translation initiation factor 4E (P63073 whole entry): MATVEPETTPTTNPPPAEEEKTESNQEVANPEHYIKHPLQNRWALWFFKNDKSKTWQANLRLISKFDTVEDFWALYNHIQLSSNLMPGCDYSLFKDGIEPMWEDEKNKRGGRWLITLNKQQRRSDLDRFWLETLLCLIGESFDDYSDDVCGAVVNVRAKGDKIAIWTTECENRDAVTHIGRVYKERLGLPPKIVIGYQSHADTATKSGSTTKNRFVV

[4] = target: T2, Acyl-homoserine lactone acylase PvdQ (Pseudomonas aeruginosa (strain LESB58), UniProt Q9I194); assay: PvdQ acylase enzyme activity blockers – biochemical, fluorescence, plate reader and imaging, cherry-picks, dose response (AID 493231)
T2 sequence (Q9I194 whole entry): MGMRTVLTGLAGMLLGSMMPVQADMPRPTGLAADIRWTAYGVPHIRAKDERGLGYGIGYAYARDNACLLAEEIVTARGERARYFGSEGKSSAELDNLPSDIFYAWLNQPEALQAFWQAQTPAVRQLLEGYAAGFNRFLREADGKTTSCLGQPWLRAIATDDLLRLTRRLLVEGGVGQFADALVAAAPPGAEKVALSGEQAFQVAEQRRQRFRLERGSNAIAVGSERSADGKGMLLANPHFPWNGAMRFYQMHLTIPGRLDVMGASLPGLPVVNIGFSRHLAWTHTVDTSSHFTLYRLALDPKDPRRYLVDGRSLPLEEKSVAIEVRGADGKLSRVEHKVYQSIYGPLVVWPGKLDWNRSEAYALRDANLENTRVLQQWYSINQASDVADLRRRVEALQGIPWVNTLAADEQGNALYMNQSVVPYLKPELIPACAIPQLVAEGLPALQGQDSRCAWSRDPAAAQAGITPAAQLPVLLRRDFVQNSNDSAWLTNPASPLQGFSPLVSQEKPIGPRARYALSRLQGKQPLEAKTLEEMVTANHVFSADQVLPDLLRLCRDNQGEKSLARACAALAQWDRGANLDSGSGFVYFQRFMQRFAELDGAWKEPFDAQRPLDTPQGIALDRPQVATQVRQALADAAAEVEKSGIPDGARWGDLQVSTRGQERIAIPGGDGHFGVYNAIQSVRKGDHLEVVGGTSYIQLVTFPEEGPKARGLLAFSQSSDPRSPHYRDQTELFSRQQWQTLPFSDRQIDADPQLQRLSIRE

CAAX prenyl protease 2 [5] = target: T3, CAAX prenyl protease 2 (Homo sapiens, UniProt Q9Y256); assay: inhibition of Ras-converting CAAX protease Rce1 – biochemical, yeast membranes, quenched-peptide fluorescence, cherry-pick, dose response (AID 588849)
T3 sequence (Q9Y256 whole entry): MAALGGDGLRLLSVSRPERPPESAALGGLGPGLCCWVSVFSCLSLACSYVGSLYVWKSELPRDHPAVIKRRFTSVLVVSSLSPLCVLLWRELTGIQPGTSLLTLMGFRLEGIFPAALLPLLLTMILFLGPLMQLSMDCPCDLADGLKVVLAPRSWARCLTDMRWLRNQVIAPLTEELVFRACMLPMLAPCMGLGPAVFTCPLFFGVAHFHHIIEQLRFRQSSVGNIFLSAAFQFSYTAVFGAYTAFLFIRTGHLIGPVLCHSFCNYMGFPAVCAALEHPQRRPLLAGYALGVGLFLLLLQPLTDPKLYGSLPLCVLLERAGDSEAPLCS

Mucolipin-3 = target: T4, Mucolipin-3 (Homo sapiens, UniProt Q8TDD5); assay: Fluorescence counterscreen assay for […] agonists: dose response cell-based high-throughput screening assay to identify agonists of the transient receptor potential channel ML3 (TRPML3). [Related pubchem assays: 1424, 1448 ]; assay type: functional
T4 sequence (Q8TDD5 whole entry): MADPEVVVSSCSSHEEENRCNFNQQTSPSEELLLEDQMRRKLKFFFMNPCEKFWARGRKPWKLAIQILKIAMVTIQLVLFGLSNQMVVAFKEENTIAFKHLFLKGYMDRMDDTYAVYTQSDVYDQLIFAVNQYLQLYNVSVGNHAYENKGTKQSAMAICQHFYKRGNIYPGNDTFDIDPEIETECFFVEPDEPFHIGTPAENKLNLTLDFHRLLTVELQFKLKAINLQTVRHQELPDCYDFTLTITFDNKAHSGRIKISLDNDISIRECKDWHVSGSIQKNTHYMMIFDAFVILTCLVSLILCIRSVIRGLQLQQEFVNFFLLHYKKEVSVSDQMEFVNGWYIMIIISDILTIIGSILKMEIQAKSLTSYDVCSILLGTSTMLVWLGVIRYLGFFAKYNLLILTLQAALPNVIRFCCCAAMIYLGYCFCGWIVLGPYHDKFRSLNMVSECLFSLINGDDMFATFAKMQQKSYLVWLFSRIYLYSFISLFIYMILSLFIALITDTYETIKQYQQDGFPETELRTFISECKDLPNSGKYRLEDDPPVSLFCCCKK

Ion channel NompC = Ion channel NompC (Danio rerio, UniProt Q7T1G6); assay: Dose response cell-based high-throughput screening assay for agonists of the transient receptor potential channel N1 (TRPN1). [Related pubchem assays (depositor defined):AID1424, AID1448]; assay type: functional
Chain of Ion channel NompC (Q7T1G6 whole entry, the tested form may be a part): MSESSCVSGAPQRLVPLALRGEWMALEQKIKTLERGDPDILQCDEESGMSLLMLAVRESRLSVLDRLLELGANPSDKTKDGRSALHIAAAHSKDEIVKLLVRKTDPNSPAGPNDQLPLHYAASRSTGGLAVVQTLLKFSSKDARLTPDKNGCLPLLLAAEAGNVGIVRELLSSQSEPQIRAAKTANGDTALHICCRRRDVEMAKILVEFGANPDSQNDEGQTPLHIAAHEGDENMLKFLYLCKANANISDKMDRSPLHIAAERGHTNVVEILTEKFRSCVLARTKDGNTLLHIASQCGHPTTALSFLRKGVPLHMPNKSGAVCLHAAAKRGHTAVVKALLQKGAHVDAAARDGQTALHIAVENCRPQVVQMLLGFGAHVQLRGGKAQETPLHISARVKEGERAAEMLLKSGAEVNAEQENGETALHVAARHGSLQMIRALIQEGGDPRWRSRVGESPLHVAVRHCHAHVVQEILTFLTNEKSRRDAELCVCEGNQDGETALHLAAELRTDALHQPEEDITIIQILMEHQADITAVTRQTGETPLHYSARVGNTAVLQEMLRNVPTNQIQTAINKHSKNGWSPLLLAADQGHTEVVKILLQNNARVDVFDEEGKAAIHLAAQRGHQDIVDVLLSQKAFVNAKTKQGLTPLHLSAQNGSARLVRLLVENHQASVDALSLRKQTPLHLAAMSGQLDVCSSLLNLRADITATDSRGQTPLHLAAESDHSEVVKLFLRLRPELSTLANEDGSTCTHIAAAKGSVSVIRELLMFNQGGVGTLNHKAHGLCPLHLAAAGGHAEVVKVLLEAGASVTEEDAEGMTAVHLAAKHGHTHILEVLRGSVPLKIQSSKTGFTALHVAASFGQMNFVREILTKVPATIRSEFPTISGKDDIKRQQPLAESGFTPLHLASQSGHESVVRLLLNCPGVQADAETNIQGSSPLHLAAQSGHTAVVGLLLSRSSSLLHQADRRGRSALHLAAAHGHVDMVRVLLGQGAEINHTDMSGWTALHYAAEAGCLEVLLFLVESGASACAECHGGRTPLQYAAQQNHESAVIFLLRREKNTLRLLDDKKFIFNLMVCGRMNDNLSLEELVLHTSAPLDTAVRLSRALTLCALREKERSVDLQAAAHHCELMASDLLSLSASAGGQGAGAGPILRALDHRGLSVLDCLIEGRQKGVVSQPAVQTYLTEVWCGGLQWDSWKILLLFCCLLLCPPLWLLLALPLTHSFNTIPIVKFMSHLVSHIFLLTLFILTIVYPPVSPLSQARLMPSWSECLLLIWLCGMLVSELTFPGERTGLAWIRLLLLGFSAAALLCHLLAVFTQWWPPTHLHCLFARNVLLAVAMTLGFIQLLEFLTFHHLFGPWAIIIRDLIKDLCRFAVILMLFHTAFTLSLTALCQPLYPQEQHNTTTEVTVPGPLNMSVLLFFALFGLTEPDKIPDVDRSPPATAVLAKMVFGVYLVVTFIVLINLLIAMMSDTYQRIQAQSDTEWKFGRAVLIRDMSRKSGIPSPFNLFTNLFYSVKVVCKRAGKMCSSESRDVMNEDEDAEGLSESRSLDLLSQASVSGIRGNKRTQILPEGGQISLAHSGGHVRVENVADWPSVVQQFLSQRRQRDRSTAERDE

[6] = target: T5, Polyadenylate-binding protein 1 (Homo sapiens, UniProt P11940); assay: MLLE domain peptide-binding blockers, IC50 – biochemical, fluorescence polarization, FITC-PAM2 peptide, dose response (AID 602259); assay type: functional; conditions: read-out: IC50_Mean
T5 sequence (P11940 whole entry, the tested form may be a part): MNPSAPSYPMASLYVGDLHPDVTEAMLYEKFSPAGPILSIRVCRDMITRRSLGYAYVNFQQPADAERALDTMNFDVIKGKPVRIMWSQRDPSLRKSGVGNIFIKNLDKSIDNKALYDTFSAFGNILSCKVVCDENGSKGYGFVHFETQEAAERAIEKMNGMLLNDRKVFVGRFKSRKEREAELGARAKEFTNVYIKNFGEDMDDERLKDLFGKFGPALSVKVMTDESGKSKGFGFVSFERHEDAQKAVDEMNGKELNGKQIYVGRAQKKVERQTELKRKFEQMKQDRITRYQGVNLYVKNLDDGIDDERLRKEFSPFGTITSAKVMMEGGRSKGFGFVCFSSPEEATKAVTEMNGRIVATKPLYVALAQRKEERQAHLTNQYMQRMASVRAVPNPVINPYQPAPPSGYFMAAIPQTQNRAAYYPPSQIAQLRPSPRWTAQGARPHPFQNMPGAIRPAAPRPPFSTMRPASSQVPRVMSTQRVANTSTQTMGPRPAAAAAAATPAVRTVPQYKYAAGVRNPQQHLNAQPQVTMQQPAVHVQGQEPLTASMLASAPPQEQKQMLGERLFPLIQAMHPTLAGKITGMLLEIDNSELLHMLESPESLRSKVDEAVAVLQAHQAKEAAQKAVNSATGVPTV

Nonstructural protein 1 = Nonstructural protein 1 (Influenza A virus, UniProt Q194T2); assay type: functional, Influenza A virus (A/California/07/2009(H1N1))
Chain of Nonstructural protein 1 (Q194T2 whole entry): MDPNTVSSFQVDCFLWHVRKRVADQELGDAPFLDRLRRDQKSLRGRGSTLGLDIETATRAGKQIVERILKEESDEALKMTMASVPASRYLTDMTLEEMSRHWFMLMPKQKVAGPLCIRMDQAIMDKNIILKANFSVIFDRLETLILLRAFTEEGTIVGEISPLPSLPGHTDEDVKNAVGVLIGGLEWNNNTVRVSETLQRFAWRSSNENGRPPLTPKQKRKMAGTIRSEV

[7] = target: T5, Polyadenylate-binding protein 1; assay: MLLE binding blockers, Cy5 peptide tracer – biochemical, fluorescence polarization, Cy5-PAM2 peptide, secondary, miRNA deadenylation inhibitor project, dose response (AID 602260); assay type: functional; conditions: read-out: IC50_Mean
Estrogen receptor beta = Estrogen receptor beta (Homo sapiens, UniProt Q92731); assay: blockers of SRC-3 recruitment to ERβ – biochemical, ELISA, streptavidin-HRP readout, orthogonal assay, confirmation (AID 1060)
Chain of Estrogen receptor beta (Q92731 whole entry): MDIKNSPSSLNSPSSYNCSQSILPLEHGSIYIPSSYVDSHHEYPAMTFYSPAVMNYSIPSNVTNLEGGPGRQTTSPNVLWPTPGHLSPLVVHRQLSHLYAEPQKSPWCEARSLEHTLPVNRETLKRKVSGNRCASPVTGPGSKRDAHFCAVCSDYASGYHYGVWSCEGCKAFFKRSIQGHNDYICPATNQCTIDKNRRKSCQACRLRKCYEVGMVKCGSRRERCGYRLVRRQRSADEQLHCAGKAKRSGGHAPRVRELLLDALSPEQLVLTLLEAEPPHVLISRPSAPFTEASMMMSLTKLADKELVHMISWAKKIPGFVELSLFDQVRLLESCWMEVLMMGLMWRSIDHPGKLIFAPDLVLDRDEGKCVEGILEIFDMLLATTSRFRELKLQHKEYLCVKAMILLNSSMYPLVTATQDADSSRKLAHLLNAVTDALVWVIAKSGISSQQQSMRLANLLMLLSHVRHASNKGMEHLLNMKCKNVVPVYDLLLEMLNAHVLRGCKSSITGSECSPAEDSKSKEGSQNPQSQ

[8] = target: T6, Mannose-6-phosphate isomerase (Homo sapiens, UniProt P34949); assay: MPI inhibition at elevated mannose 6-phosphate – biochemical, fluorescence intensity, high mannose 6-phosphate, primary screen (AID 1220)
T6 sequence (P34949 whole entry): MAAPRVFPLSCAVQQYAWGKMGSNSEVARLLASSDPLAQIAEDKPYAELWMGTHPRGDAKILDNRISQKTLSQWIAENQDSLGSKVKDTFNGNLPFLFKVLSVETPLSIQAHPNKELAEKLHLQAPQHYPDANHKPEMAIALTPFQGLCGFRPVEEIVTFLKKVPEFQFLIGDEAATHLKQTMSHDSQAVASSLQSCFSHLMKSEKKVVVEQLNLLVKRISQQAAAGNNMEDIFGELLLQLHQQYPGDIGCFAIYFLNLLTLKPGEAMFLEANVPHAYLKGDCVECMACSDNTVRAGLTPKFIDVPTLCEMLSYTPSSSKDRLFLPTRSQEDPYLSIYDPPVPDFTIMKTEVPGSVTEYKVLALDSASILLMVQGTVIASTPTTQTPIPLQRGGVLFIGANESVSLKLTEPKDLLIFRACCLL

[9] = Luminescence Cell-Based Dose Retest to Confirm Inhibitors of Cancer Stem Cells. [Related pubchem assays (depositor defined):AID2717, AID2721]; assay type: functional; conditions: Homo sapiens
Trypsin = Trypsin (Sus scrofa, UniProt P00761); assay: trypsin protease activity blockade – biochemical, quenched peptide fluorescence, cherry-pick, selectivity assay for Rce1 protease inhibitor project, dose response (AID 488789)
Chain of Trypsin (P00761 whole entry): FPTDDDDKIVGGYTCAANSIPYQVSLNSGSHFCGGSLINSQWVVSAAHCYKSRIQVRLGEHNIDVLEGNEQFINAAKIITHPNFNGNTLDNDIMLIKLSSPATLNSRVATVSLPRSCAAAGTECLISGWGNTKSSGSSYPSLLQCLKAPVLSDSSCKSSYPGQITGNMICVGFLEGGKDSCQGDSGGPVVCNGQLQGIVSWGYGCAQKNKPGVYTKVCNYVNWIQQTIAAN

CAAX prenyl protease 2 [10] = target: T7, CAAX prenyl protease 2 (Saccharomyces cerevisiae S288c, UniProt Q03530); assay type: biochemical
T7 sequence (Q03530 whole entry): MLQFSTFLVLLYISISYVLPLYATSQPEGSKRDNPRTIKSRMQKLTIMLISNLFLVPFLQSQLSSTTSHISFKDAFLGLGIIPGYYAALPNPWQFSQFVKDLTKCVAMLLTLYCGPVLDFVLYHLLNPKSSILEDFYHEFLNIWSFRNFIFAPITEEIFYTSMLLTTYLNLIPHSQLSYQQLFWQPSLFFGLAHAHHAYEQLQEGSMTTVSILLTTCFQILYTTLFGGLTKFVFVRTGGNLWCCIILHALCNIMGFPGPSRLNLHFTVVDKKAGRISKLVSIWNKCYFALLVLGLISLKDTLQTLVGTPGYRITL

Beta-galactosidase = Beta-galactosidase (Escherichia coli, UniProt Q8VNN2); assay: PubChem AID 485352; assay type: functional
Chain of Beta-galactosidase (Q8VNN2 whole entry): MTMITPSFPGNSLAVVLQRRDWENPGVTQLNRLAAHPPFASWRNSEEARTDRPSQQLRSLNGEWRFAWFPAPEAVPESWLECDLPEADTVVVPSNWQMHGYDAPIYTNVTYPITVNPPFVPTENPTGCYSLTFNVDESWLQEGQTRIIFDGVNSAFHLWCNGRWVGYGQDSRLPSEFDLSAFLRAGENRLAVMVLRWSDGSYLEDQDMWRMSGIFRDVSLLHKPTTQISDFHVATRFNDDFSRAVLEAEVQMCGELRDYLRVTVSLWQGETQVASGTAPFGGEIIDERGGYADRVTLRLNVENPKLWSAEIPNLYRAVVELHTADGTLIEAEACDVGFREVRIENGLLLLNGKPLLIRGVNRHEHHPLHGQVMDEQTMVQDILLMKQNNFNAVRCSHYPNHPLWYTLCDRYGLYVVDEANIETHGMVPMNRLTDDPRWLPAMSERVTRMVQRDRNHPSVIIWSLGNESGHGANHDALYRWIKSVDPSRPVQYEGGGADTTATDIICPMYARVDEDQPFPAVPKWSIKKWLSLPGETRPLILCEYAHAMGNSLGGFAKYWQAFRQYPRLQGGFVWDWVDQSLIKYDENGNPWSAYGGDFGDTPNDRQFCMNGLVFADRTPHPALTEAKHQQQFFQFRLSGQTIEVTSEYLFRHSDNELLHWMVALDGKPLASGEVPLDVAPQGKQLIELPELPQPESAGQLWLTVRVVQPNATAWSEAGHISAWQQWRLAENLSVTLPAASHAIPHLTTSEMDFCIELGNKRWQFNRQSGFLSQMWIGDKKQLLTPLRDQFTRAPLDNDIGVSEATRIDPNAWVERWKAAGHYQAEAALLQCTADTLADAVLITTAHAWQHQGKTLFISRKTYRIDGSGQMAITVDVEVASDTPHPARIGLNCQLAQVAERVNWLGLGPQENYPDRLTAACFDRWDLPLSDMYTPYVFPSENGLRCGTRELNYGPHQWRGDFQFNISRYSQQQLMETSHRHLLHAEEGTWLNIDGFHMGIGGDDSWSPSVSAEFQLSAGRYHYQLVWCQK

[11] = target: T8, Type-1 angiotensin II receptor (Homo sapiens, UniProt P30556); assay: antagonism of angiotensin II type 1 receptor – cell-based, uHTS hits, selectivity assay for APJ receptor antagonist project, dose response (AID 463214); assay type: functional;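 note: antagonist potency against angiotensin II stimulated AT1 response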
T8 sequence (P30556 whole entry): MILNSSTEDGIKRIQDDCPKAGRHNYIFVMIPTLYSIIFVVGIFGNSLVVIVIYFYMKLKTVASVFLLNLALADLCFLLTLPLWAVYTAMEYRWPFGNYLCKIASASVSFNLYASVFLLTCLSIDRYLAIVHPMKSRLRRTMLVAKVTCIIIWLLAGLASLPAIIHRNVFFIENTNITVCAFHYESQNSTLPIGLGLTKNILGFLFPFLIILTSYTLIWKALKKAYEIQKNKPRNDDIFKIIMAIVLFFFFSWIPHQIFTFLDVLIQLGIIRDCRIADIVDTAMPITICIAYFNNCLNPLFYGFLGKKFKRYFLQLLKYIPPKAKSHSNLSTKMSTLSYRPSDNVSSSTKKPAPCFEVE

[12] = target: Nucleotide-binding oligomerization domain-containing protein 2 (Homo sapiens, UniProt Q9HC29); assay: inhibition of NOD2-driven NF-kB reporter – cell-based, luminescence, uHTS, HEK293 (AID 1566); assay type: functional
HEK293 [13] = assay: cells; assay type: functional, cell-based; conditions: Homo sapiens
[14] = target: T9, Heat shock factor protein 1 (Mus musculus, UniProt P38532); assay: decrease of HSF1-responsive luciferase luminescence – cell-based, NIH3T3, dose retest, confirmation (AID 2382); assay type: functional;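 note: NIH3T3 fibroblasts with HSF1-driven luciferase reporter stressed by proteasome inhibitor MG132; luminescence from HSF1-driven luciferase expression after 8 hours of MG132 stress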
T9 sequence (P38532 whole entry): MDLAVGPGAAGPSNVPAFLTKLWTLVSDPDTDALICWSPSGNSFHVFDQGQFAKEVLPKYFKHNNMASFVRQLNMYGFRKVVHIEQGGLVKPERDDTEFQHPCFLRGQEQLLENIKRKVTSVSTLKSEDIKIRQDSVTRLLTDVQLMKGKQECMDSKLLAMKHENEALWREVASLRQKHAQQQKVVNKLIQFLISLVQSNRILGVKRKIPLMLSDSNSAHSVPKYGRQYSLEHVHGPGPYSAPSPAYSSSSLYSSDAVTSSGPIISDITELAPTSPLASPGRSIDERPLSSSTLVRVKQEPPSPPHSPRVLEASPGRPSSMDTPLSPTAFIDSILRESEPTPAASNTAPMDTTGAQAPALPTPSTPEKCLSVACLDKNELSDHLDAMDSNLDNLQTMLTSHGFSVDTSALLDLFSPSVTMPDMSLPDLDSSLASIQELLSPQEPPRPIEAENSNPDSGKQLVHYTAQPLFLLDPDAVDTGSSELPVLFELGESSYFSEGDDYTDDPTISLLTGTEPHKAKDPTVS

HEK293 [15] = assay: cells; assay type: functional, cell-based; conditions: Homo sapiens; remark: listed apart in the source
HEK293 [16] = assay: inhibition of NOD1-driven NF-kB reporter – cell-based, luminescence, uHTS, primary screen (AID 1578); assay type: functional; conditions: Homo sapiens
HEK293 [17] = assay: NOD2 signaling inhibitors in MDP-stimulated cells, cell-based, uHTS, luminescence (AID 2001); assay type: functional; conditions: Homo sapiens

COc1ccc(Br)cc1S(=O)(=O)n1cc(C(N)=O)c2ccccc21
IC50 [1]: > 100 µM (inactive) | IC50 [2]: > 100 µM (not active)

O=C(OCc1cc(=O)n2c(n1)sc1ccccc12)c1ccc(O)cc1O
IC50 [3]: 50 µM (inactive)

COC(=O)c1cc(-c2ccc(Br)cc2)on1
IC50 [1]: > 100 µM (inactive) | IC50 [2]: > 100 µM (not active) | AC50 [4]: 4.37 µM (active)

COC(=O)Cn1c(CCC(=O)O)ccc1-c1ccccc1
AC50 (CAAX prenyl protease 2 [5]): 32.7 µM (active)

S=C(NCCCc1ccccc1)Nc1ccccc1Cl
EC50 (Mucolipin-3): > 29.9 µM (not active) | EC50 (Ion channel NompC): > 29.9 µM (inactive)

CCOC(=O)N1CCN(C(c2cccnc2)c2ccc3cccnc3c2O)CC1 (stereo not drawn)
IC50 [6]: > 66 µM (inactive) | IC50 (Nonstructural protein 1): 14.6 µM (active) | IC50 [7]: > 66 µM (inactive) | IC50 (Estrogen receptor beta): 10.6 µM (not active) | IC50 [8]: 32 µM (active) | IC50 [3]: > 64 µM (inactive)

CS(=O)(=O)Nc1ccccc1C(=O)Nc1cccc(Cl)c1
AC50 [9]: 45.2 µM (active) | AC50 (Trypsin): 6.73 µM (active) | AC50 (CAAX prenyl protease 2 [10]): 21.8 µM (active)

O=[N+]([O-])c1ccc(Oc2ccc(S(=O)(=O)Nc3ccccc3)cc2)cc1
EC50 (Mucolipin-3): > 29.9 µM (not active) | EC50 (Ion channel NompC): > 29.9 µM (inactive)

CNS(=O)(=O)c1cccc(C(=O)OCC(=O)c2cc3ccccc3o2)c1
EC50 (Beta-galactosidase): > 40 µM (inactive) | IC50 [11]: 15.5 µM (active)

CCOc1ccccc1-n1c(SCC(=O)Nc2ccccc2C(=O)O)nc2ccccc2c1=O
EC50 [12]: > 20 µM (inactive) | IC50 (HEK293 [13]): > 20 µM (inactive) | EC50 [14]: 4.46 µM (active) | IC50 (HEK293 [15]): > 20 µM (inactive) | EC50 (HEK293 [16]): > 20 µM (inactive) | IC50 (HEK293 [17]): > 20 µM (inactive)
